The values that follow come from article PMC12369021, “Biased Signaling and Its Role in the Genesis of Short- and Long-Acting β2‑Adrenoceptor Agonists” (Biochemistry, 2025).

Assay [1] concerns the target T1, β2AR (Homo sapiens, UniProt P07550). Nature of the assay: nanoBRET mGs protein recruitment assay in T-REx-293-β2AR-nLuc cells. The class given is cell-based. The settings on record: for EC50: mean ± SEM. On the technique in general: In BRET a luciferase serves as donor, and the signal depends on an acceptor being close.
Target sequence in this assay (P07550 whole entry): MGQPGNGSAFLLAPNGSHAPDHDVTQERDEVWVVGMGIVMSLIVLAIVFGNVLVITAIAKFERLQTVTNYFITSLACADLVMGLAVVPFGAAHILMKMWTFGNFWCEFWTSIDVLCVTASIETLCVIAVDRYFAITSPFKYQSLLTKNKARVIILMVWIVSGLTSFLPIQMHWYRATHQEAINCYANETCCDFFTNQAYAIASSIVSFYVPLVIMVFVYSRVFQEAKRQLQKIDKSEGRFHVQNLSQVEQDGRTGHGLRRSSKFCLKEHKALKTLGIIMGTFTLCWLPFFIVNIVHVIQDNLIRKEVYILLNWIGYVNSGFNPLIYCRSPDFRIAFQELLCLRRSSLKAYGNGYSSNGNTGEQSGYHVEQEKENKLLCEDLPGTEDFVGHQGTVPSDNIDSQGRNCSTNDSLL
Assay [2] deals with T1, β2AR. Kind of assay: nanoBRET β-arrestin2 recruitment assay in T-REx-293-β2AR-nLuc cells. The class given is cell-based. Particulars: for EC50: mean ± SEM.
Target sequence in this assay (P07550 whole entry): as above
Target sequence in this assay (P32121 whole entry partner): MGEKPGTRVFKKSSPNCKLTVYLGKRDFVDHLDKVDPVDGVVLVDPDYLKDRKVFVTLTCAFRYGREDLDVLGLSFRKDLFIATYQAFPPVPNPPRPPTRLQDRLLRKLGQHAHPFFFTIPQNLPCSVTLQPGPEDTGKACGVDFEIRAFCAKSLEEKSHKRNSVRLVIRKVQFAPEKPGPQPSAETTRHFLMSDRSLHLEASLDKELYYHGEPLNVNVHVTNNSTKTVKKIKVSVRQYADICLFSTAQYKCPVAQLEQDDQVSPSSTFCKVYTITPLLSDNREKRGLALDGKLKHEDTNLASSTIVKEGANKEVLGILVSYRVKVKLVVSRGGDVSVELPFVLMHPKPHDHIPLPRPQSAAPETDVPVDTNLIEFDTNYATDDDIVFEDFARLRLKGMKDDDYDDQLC
The test system of assay [3] is β2AR. Particulars: for log bias factor (mGs/Arr2): ΔΔlog(Emax/EC50) relative to reference formoterol, from peak responses. The method, then:
To determine the relative effectiveness of the compounds to activate the different signaling pathways, the difference between the log(E max/EC50) values was calculated.
Using the estimates of agonist activity Δlog(E max/EC50) for the test and reference agonists, pathway log bias was calculated as follows: 3 ΔΔlog(Emax/EC50)=Δlog(Emax/EC50)P1−Δlog(Emax/EC50)P2 where pathway 1 (P1) is mGs-dependent recruitment and pathway 2 (P2) is β-arrestin2 recruitment. Bias factors were calculated by taking the antilog of the ΔΔlog(E max/EC50).
Error on the pathway bias was calculated using the following formula: 4 SEMΔΔlog(Emax/EC50)=SEMΔlog(Emax/EC50)P12+SEMΔlog(Emax/EC50)P22

In assay [4] the target is β2AR. Particulars: cited from earlier work.
[5] abbreviates: read-out: mGs Emax at room temperature.
The mark [6] stands for this setting: read-out: mGs Emax derived from AUC analysis.
Where [7] appears, read: read-out: β-arrestin2 Emax at room temperature.
Where [8] appears, read: read-out: β-arrestin2 Emax derived from AUC analysis.
Where [9] appears, read: ΔΔlog(Emax/EC50) relative to formoterol, AUC-derived.

Read-outs that look alike come from different tables or passages of the source.

For orientation: Ki means a measure of affinity in units of concentration, obtained from inhibition or displacement. Turning to `CCC(NC(C)C)C(O)c1ccc(O)c(O)c1` (stereo not shown) [Isoetharine], the EC50 on β2AR [1] (AUC analysis, 37 °C, read-out: mGs pEC50 derived from AUC analysis (converted)) is 38 nM; on β2AR [1] (peak response at 30 min, 37 °C, read-out: mGs pEC50 (converted)), 61.7 nM; at β2AR [1] (room temperature, 3 observations, read-out: mGs pEC50 at room temperature (converted)) it was 13.5 nM; on β2AR [2] (AUC analysis, 37 °C, read-out: β-arrestin2 pEC50 derived from AUC analysis (converted)), 224 nM; at β2AR [2] (peak response, 37 °C, read-out: β-arrestin2 pEC50 (converted)), 417 nM; on β2AR [2] (room temperature, 3 observations, read-out: β-arrestin2 pEC50 at room temperature (converted)), 209 nM. In addition, the Emax on β2AR [1] (read-out: mGs E max) was determined as 97.8 ± 1.4%; at β2AR [1] (setting [5]) it was 101 ± 2.8%; on β2AR [1] (setting [6]), 93.9 ± 1.7%; on β2AR [2] (read-out: β-arrestin2 E max) it was 112 ± 5.9%; on β2AR [2] (setting [7]) it was 116 ± 1.7%; at β2AR [2] (setting [8]) it was 103 ± 4.37%. Also, the “Log Bias Factor (mGs/Arr2) from AUC analysis” value in the assay with β2AR [3] (setting [9]) was determined as 0.79 ± 0.06. The “log bias factor (mGs/Arr2)” value with β2AR [3] was 0.59 ± 0.13. Also, the Ki on β2AR [4] was 1580 nM.

Turning to `CC(C)NCC(O)c1ccc(O)c(O)c1` (stereo not shown) [Isoprenaline, isoprenaline], in the assay with β2AR [3], the “Log Bias Factor (mGs/Arr2) from AUC analysis” value was determined as 0.51 ± 0.07 and the “log bias factor (mGs/Arr2)” value is 0.48 ± 0.14.

With `OCc1cc(C(O)CNCCCCCCOCCCCc2ccccc2)ccc1O` (stereo not shown) [Salmeterol], the “log bias factor (mGs/Arr2)” value in the assay with β2AR [3] is 0.53 ± 0.15.

With `CC(C)(C)NCC(O)c1ccccc1Cl` (stereo not shown) [Tulobuterol], the Emax at β2AR [1] (read-out: mGs E max) is 33.6 ± 0.6%; on β2AR [1] (setting [5]) it was 41.9 ± 1.4%; at β2AR [1] (setting [6]) it was 32.8 ± 0.4%; at β2AR [2] (setting [7]), 8.8 ± 1%.

`CC(C)(C)NCC(O)c1ccc(O)c(CO)c1` (stereo not shown) [Salbutamol]: in the assay on β2AR [3] (setting [9]), the “Log Bias Factor (mGs/Arr2) from AUC analysis” value is 1.65 ± 0.06. In addition, the “log bias factor (mGs/Arr2)” value in the assay on β2AR [3] amounted to 1.42 ± 0.19.

For `CC(Cc1ccc(O)cc1)NCC(O)c1cc(O)cc(O)c1` (stereo not shown) [Fenoterol, fenoterol], the Emax at β2AR [1] (read-out: mGs E max) is 77 ± 0.4%; on β2AR [1] (setting [5]), 73.9 ± 2.1%; on β2AR [1] (setting [6]), 76.7 ± 0.8%; on β2AR [2] (read-out: β-arrestin2 E max), 85 ± 2.5%; on β2AR [2] (setting [7]), 83.8 ± 7.1%; on β2AR [2] (setting [8]), 93.6 ± 8.1%. Moreover, the “Log Bias Factor (mGs/Arr2) from AUC analysis” value in the assay with β2AR [3] (setting [9]) was 0.37 ± 0.05. Besides, the “log bias factor (mGs/Arr2)” value with β2AR [3] is 0.32 ± 0.11.

Regarding `COc1ccc(CC(C)NCC(O)c2ccc(O)c(NC=O)c2)cc1` (stereo not shown) [Formoterol], the “log bias factor (mGs/Arr2)” value in the assay with β2AR [3] worked out at 0 ± 0.10.

For `C=CCc1ccccc1OCC(O)CNC(C)C` (stereo not shown) [Alprenolol], the inhibitory constant (Ki) on β2AR [4] was 0.912 nM.
